Assay results reported in PMC12809571, “Contribution to the Chemotherapy of Human Trypanosomiasis: Design, Synthesis, and Biological Evaluation of Dimeric 2‑Nitroimidazoles against Trypanosoma cruzi Amastigotes and Bloodstream Trypanosoma brucei” (ACS Omega, 2025).
Like-named read-outs stand apart in the source and are kept apart here.

Key:
[1] = system: amastigotes of T. cruzi (Tulahuen C2C4 LacZ strain); assay: Trypanocidal activity against T. cruzi amastigotes (CPRG, infected LLC-MK2); type: cell-based, Trypanosoma cruzi; conditions: intracellular amastigotes in LLC-MK2, 120 h; for IC50: Trypanosoma cruzi, TULAHUEN, read-out: Activity against Amastigotes of T. cruzi (Tulahuen C2C4lacZ) IC50
Method: The antiparasitic activity assays used amastigotes of the Tulahuen C2C4-LacZ strain of T. cruzi. Amastigotes and trypomastigotes were cultured by successive reinfections in LLC-MK2 cell monolayers in DMEM supplemented with 5% FBS and incubated at 37 °C with 5% CO2. Trypomastigotes were collected from the culture supernatant between days 5 and 10 after infection and separated from nonadhered cells by differential centrifugation.
In a flat 96-well plate, a suspension of 1 × 10^4 LLC-MK2 cells (ATCC) in DMEM supplemented with 2% FBS was added. Cells were incubated at 37 °C with 5% CO2 for 4 h to promote adhesion, then washed with PBS to remove nonadherent cells. A suspension containing 1.5 × 10^5 T. cruzi trypomastigote forms of the Tulahuen C2C4 LacZ strain was added to the cells, followed by incubation at 37 °C with 5% CO2 for 20 h to establish infection. Noninternalized parasites were removed with three successive PBS washes, then treatment with serial dilutions (50–0.08 μM) of compounds in triplicate, prediluted in DMEM with 2% FBS. Controls included untreated cells, vehicle (0.2% v/v DMSO), and blank (no parasite added). Benznidazole, in serial dilutions, served as a positive control. After 5 days (120 h), 30 μL of a 0.5 mM CPRG solution in PBS was added along with 0.9% v/v Igepal CA-630. After a 2h incubation, absorbance was measured at 570 nm using a plate reader.

[2] = Cytotoxicity against LLC-MK2 cells (MTT); type: cell-based; conditions: rhesus monkey
Method: (§1) Mammalian lineage cells were used to assess the cytotoxicity of the tested compounds. LLC-MK2, HEK-293, and RAW-264 cells (ATCC) were cultured in Dulbecco’s Modified Eagle’s Medium (DMEM) supplemented with 5% fetal bovine serum (FBS) and incubated at 37 °C in 5% CO2, with passages every 4–5 days. Cells were detached from the monolayer using a solution containing 0.25% w/v trypsin and 0.04% EDTA.
In a flat 96-well plate, a suspension of 1 × 10^4 LLC-MK2 cells (ATCC) in DMEM supplemented with 2% FBS was added. Cells were incubated at 37 °C (5% CO2) for 20 h, then washed with phosphate-buffered saline (PBS) to remove nonadherent cells. Cells were treated with serial dilutions (200–2 μM) of compounds in triplicate, prediluted in DMEM with 2% FBS. Untreated, vehicle (0.2% v/v DMSO), and blank (no cells added) controls were included. After 120 h of incubation, the supernatant was removed, the cell monolayer washed with PBS, and the culture medium refreshed. Then, 20 μL of a 3.0 mM MTT salt solution was added, followed by two additional hours of incubation. The supernatant was removed again, and the MTT formazan crystals were dissolved by adding 120 μL of DMSO per well. After 1.5 h of dark incubation at 37 °C to dissolve the crystals, the absorbance was measured at 570 nm using a plate reader.

[3] = system: amastigotes of T. cruzi (Tulahuen C2C4 LacZ strain); assay: Trypanocidal activity against T. cruzi amastigotes (CPRG, infected LLC-MK2); type: cell-based, Trypanosoma cruzi
Chagas disease = conditions: chronic phase of Chagas disease; cited from earlier work
[4] = system: bloodstream trypomastigotes of T. b. brucei; assay: Trypanocidal activity against T. brucei brucei bloodstream (MTS); type: cell-based, Trypanosoma brucei brucei
Method: In a transparent 96-well plate, the parasites were incubated for 48 h at a concentration of 5 × 10^4 parasites per well, for 24 h, a concentration of 10 × 10^5 parasites per well was used in Hirumi’s Modified Iscove’s (HMI-9) medium supplemented with 10% FBS and a final 100 μL/well volume. Treatment was carried out using serial dilutions of the compounds (100–0.02 μM) and fexinidazole as the reference drug, both in triplicate. Triplicates of untreated parasites (live control), parasites treated with DMSO 0.2% v/v (vehicle), and wells without parasites (blank control) served as experimental controls. After incubation, 20 μL of MTS solution (5% PMS) was added, and the sample was incubated for another 2 h. Once the plate was visibly stained–due to the soluble formazan salt produced by the action of viable parasites from the reduction of MTS–the absorbance was measured at 490 nm using a plate reader.

HEK-293 cells = assay: Cytotoxicity against HEK-293 cells (MTT); type: cell-based
Method: as §1
In a 96-well transparent plate, a suspension of 1 × 10^4 HEK-293 cells (ATCC) in DMEM medium supplemented with 10% FBS was added. Cells were incubated at 37 °C (5% CO2) for 20 h and then washed with PBS to remove nonadherent cells. The cells were treated with serial dilutions of the hybrids in triplicate (125–0.2 μM), prediluted in DMEM containing 10% FBS. The experiment included untreated controls, vehicle (0.2% v/v DMSO), and a blank (no added cells). […] Then, 20 μL of 3.0 mM MTT saline was added, followed by an additional 1.5 h of incubation. The supernatant was removed, and the MTT formazan crystals were dissolved by adding 120 μL of DMSO per well. After incubating for 1.5 h in the dark at 37 °C, the absorbance was measured at 570 nm using a plate reader.

RAW-264.7 cells = assay: Cytotoxicity against RAW-264.7 cells (MTT); type: cell-based
Method: as §1
In a 96-well transparent plate, a suspension of 1 × 10^4 RAW-264.7 cells (ATCC) in Roswell Park Memorial Institute (RPMI) medium supplemented with 10% FBS was added. Cells were incubated at 37 °C (5% CO2) for 20 h, then washed with PBS to remove nonadherent cells. Cells were treated with serial dilutions of the hybrids in triplicate (125–0.2 μM), prediluted in RPMI supplemented with 10% FBS. Controls included untreated samples, vehicle (0.2% v/v DMSO), and blank wells (no cells). […] Then, 20 μL of 3.0 mM MTT saline was added, followed by an additional 1.5 h of incubation. The supernatant was removed again, and the MTT formazan crystals were dissolved by adding 120 μL of DMSO per well. After incubating for 1.5 h in the dark at 37 °C to dissolve the crystals, absorbance was measured at 570 nm using a plate reader.

[5] = Trypanosoma brucei, 48 h, read-out: T. b. brucei 48 h IC50
[6] = Homo sapiens, HEK293, 48 h, read-out: HEK-293 48 h IC50
[7] = Mus musculus, RAW264.7, 48 h, read-out: RAW-264.7 48 h IC50
[8] = Trypanosoma brucei, 48 h; read-out: T. b. brucei 48 h IC50
[9] = Homo sapiens, HEK293, 48 h; read-out: HEK-293 48 h IC50
[10] = Mus musculus, RAW264.7, 48 h; read-out: RAW-264.7 48 h IC50

SMILES | IC50 [1] | IC50 at 120 h [2] | SI (LLC-MK2) = (IC50 LLC-MK2)/(IC50 T. cruzi) [3] | IC50 at 120 h ([2]; LLC-MK2 cells) | cure rate (Chagas disease) | SI (HEK-293) = (IC50 HEK-293)/(IC50 T. brucei brucei) [4] | SI (RAW-264.7) = (IC50 RAW-264.7)/(IC50 T. brucei brucei) [4] | IC50 [4, 5] | IC50 (HEK-293 cells; [6]) | IC50 (RAW-264.7 cells; [7]) | IC50 [4, 8] | IC50 (HEK-293 cells; [9]) | IC50 (RAW-264.7 cells; [10]) | Activity against Amastigotes of T. cruzi (Tulahuen C2C4lacZ) IC50 [1]
O=[N+]([O-])c1ncc[nH]1 [Azomycin (3), 2-nitro-1H-imidazole, reference compound] | 5.74 ± 1.89 µM | > 500 µM | >87.10 | – | – | – | – | – | – | – | – | – | – | –
O=C(Cn1ccnc1[N+](=O)[O-])NCc1ccccc1 [Benznidazole, benznidazole, reference compound] | 1.5 ± 0.33 µM | – | >133.33 | > 200 µM | less than 20% | – | – | – | – | – | – | – | – | –
O=[N+]([O-])c1nccn1CCn1ccnc1[N+](=O)[O-] [Compound 4, 1,2-Bis(2-nitro-1H-imidazol-1-yl)ethane] | 9.13 ± 0.93 µM | > 200 µM | >21.90 | – | – | >5.83 | >5.83 | 21.4 ± 1.15 µM | > 125 µM | > 125 µM | – | – | – | –
O=[N+]([O-])c1nccn1CCCn1ccnc1[N+](=O)[O-] [Compound 5, 1,3-Bis(2-nitro-1H-imidazol-1-yl)propane] | 3.2 ± 0.58 µM | > 200 µM | >62.50 | – | – | – | – | 16.4 ± 2.65 µM | > 125 µM | > 125 µM | – | – | – | –
O=[N+]([O-])c1nccn1CCCCn1ccnc1[N+](=O)[O-] [Compound 6, 1,4-Bis(2-nitro-1H-imidazol-1-yl)butane] | 2.66 ± 0.78 µM | > 200 µM | >75.18 | – | – | >5.02 | >5.02 | – | – | – | 24.9 ± 7.89 µM | > 125 µM | > 125 µM | –
O=[N+]([O-])c1nccn1CCCCCn1ccnc1[N+](=O)[O-] [Compound 7, 1,5-Bis(2-nitro-1H-imidazol-1-yl)pentane] | 1.38 ± 0.24 µM | > 200 µM | >144.9 | – | – | >12.42 | >12.42 | – | – | – | 10.1 ± 2.47 µM | > 125 µM | > 125 µM | –
O=[N+]([O-])c1nccn1CCCCCCn1ccnc1[N+](=O)[O-] [Compound 8, 1,6-Bis(2-nitro-1H-imidazol-1-yl)hexane] | 0.59 ± 0.01 µM | > 200 µM | >338.98 | – | – | 16.27 | >23.27 | – | – | – | 5.37 ± 3.15 µM | 87.4 ± 1.2 µM | > 125 µM | submicromolar range
O=[N+]([O-])c1nccn1CCCCCCCCn1ccnc1[N+](=O)[O-] [Compound 9, 1,8-Bis(2-nitro-1H-imidazol-1-yl)octane] | 1.19 ± 0.31 µM | > 100 µM | >84.03 | – | – | 2.79 | 8.98 | – | – | – | 7.98 ± 3.12 µM | 22.3 ± 1.08 µM | 71.7 ± 3.67 µM | –
O=[N+]([O-])c1nccn1CCCCCCCCCCn1ccnc1[N+](=O)[O-] [Compound 10, 1,10-Bis(2-nitro-1H-imidazol-1-yl)decane] | 0.48 ± 0.11 µM | > 100 µM | >208.33 | – | – | 1.67 | 4.67 | – | – | – | 21 ± 1.9 µM | 35.1 ± 5.31 µM | 98.4 ± 9.39 µM | submicromolar range
O=[N+]([O-])c1nccn1CCCCCCCCCCCCn1ccnc1[N+](=O)[O-] [Compound 11, 1,12-Bis(2-nitro-1H-imidazol-1-yl)dodecane] | 0.61 ± 0.13 µM | 52.4 ± 4.13 µM | 85.88 | – | – | 57.01 | >69.83 | – | – | – | 1.79 ± 0.63 µM | 102 ± 8.54 µM | > 125 µM | submicromolar range
CSc1ccc(OCc2ncc([N+](=O)[O-])n2C)cc1 [Fexinidazole, fexinidazole, reference compound] | – | – | – | – | – | – | – | – | – | – | 1.2 ± 0.51 µM | – | – | –
CC1CS(=O)(=O)CCN1/N=C/c1ccc([N+](=O)[O-])o1 (centres unmarked) [nifurtimox] | – | – | – | – | less than 20% | – | – | – | – | – | – | – | – | –
